From patent publication US5504097A, “N-hydroxyureas as 5-lipoxygenase inhibitors and inhibitors of oxidative modification of low density lipoprotein” (American Home Products Corporation, priority 1995, dated 1996) come the findings set out here.

Experiment [1] concerns LT-dependent bronchoconstriction. The experiment in a line: Inhibition of Bronchoconstriction in Guinea Pigs Induced by Exogenously Administered Antigen (ovalbumin). The experiment is classed as in vivo, Male guinea pigs. The following applies: Cavia porcellus, iv, 5 min; 10 mg/kg. The method, then:
4. Inhibition of Brochoconstriction in Guinea Pigs Induced by Exogenously Administered Antigen
Male guinea pigs (Charles River, Wilmington, Mass.) were sensitized 3-4 weeks prior to antigen challenge by administration of 2 i.m. injections of ovalbumin, 1 into each hind limb (35 mg total). Sensitized animals (500-600 g) were fasted overnight prior to experimentation. Conscious animals were then dosed p.o. with drug or vehicle alone (0.5% Tween 80 in H2 O) at the indicated times prior to antigen challenge, or anesthetized animals were dosed i.v. with drug or vehicle alone (DMSO) 5 min prior to antigen challenge. Animals were anesthetized by urethane (2.8 g/kg i.p.). A carotid artery and jugular vein were cannulated to allow for the monitoring of blood pressure and the administration of drugs, respectively. The trachea was then cannulated and connected to a Harvard Apparatus rodent ventilator (S. Natick, Mass). Spontaneous respiration was abolished by the administration of succinylcholine (2.5 mg/kg i.v.). The animals were then ventilated with room air at a rate of 65 breaths per min. Airway inflation pressure was measured using a Statham pressure transducer (Gould Instruments, Cleveland, Ohio) connected to the tracheal cannula via a side-arm and recorded on a Grass Instruments recorder (Quincy, Mass). The tidal volume (approximately 10 cc/kg) was adjusted to give a baseline inflation pressure of 8-10 cm H2 O at end inspiration. Animals were then allowed 20 min to stabilize.
Following the stabilization period, animals were given i.v. injections of pyrilamine (5 mg/kg), propranolol (0.1 mg/kg) and indomethacin (10 mg/kg) at 15, 10 and 5 min, respectively, prior to antigen challenge. This pretreatment results in an LT-dependent bronchoconstriction following antigen challenge, which was accomplished by i.v. administration of ovalbumin (10 mg/kg). Only one bronchoconstriction per animal was induced. End-inspiratory inflation pressure (in cm H2 O over baseline) was measured at 5 min post-antigen challenge. A mean value and standard error for the % inhibition of control bronchoconstriction in each drug-treated group was then calculated.

Experiment [2] has as its target T1, 5-Lipoxygenase (Homo sapiens, UniProt P09917).
T1 construct: from tissue; host or cells: whole blood of male human donors (endogenous enzyme of the leukocytes)
T1 sequence (P09917 1-674): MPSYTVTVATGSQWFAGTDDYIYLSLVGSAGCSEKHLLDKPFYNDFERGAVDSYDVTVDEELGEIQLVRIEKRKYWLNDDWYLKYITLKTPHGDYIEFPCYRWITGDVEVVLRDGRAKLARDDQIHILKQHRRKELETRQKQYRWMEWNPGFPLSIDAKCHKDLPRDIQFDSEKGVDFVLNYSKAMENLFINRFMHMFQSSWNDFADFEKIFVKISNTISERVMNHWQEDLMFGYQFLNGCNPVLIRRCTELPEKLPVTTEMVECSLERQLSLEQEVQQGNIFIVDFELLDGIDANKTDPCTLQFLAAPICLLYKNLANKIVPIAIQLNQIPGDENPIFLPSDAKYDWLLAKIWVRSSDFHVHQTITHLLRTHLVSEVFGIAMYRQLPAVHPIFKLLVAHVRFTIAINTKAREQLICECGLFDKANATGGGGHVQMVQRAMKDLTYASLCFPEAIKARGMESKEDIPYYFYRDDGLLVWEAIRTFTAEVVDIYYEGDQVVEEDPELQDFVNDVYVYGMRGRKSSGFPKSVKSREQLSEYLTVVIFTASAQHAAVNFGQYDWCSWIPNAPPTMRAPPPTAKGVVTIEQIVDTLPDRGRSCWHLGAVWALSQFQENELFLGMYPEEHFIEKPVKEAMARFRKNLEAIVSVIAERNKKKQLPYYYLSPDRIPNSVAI
Put plainly: Inhibition of 5-Lipoxygenase in Human Whole Blood (LTB4, calcium ionophore A23187). In kind it is cell-based. The method, then: 1. Inhibition of 5-Lipoxygenase in Human Whole Blood
Blood is obtained in 50-100 ml quantities from male donors. White blood cell counts and differentials are made. Two ml of blood are placed in a 15 ml polypropylene test tube. Test compounds are solubilized in dimethylsulfoxide and diluted in 1:10 in 10% bovine serum albumin in phosphate buffered saline, pH 7.4 resulting in a final dimethylsulfoxide concentration of 0.1% in the blood. Then, solutions of test compounds are added to the blood in a shaking water bath at 37° C. for 10 minutes prior to the addition of 30 μM calcium ionophore (A23187, Sigma). After ionophore administration, whole blood samples are mixed and incubated for 20 minutes at 37° C. in a shaking water bath. Incubation is terminated by placing samples in an ice bath and immediately adding ethylene glycol-bis-(β-aminoethyl ether)-N, N,N',N'-tetraacetic acid (10 mM). Samples are mixed and centrifuged at 1200× g for 15 minutes at 4° C. Preparation of samples for evaluation by RIA or ELISA is carried out by the following protocol. Plasma is removed from sample tubes, placed in 15 ml polypropylene test tubes containing 8 ml methanol, and then vortexed to precipitate protein. Samples are stored at -70° C. overnight. The next day, samples are centrifuged at 200× g for 15 minutes at 4° C. to pellet the precipitate. Samples are dried in a Savant SpeedVac Concentrator, Model SVC 200H, reconstituted to original volume with ice cold RIA or ELISA buffer, and stored at -70° C. until assayed. The assay for eicosanoids (LTB4, T×B2, and PGE2) is performed as described by the manufacturer of the ^3 H!-RIA kit or ELISA kit (LTB4 -Amersham, T×B2 and PGE2 -Caymen Chemical).
The total eicosanoid level in 2 ml of blood is calculated and reported as ng/10^6 neutrophils. Significance is determined by a one-way analysis of variance with least significant difference (LSD) comparisons to control (p≤0.05) and IC50 's (μM) are determined by regression analysis (Finney, 1978). Drug effects are expressed as percent change from control values.

Experiment [3] deals with Lipoxygenase. Put plainly: Ex-Vivo Measurement of Lipoxygenase Inhibition in Orally Dosed Rats (LTB4 in A23187-stimulated blood). Further details: species or system Male Sprague Dawley rats. The following applies: 10 mg/kg, p.o.; pretreatment period 6 hr. The method, then: 2. Ex-Vivo Measurement of Lipoxygenase Inhibition in Orally Dosed Rats
After an interval of 3 or 6 hours, the rats were anesthetized with metofane (n=4/group) and blood collected in heparinized tubes. White blood cell counts and differentials were made. One ml of blood from each animal was placed in a 5 ml plastic tube in a shaker bath at 37° C. A23187 at a final concentration of 10 μM was added to the blood and the blood vortexed and incubated for 15 min at 37° C. with gentle shaking. Incubation was terminated by vortexing sample and centrifuging immediately at 1200× G for 15 min at 4° C. The plasma was transferred to 15 ml plastic tubes each containing 8 ml of methanol to precipitate protein followed by vortexing. The samples were stored at -70° C. overnight and the next day the samples were centrifuged at 800× G for 15 min to pellet the precipitate. The samples were dried in a Savant SpeedVac Concentrator Model SVC 200H and reconstituted to the original volume with cold RIA or ELISA buffer. The reconstituted samples were stored at -70° C. until assayed. The assay for LTB4 was performed according to the directions of the ^3 H!RIA kit or ELISA kit (Seragen). The total metabolite level in 1 ml of blood is calculated and reported as ng/10^6 neutrophils. Significance is determined by a one-way analysis of variance with LSD comparisons to control (p≤0.05).

Counter-ions that a name gives are not always drawn.

Consider `Cc1oc(-c2ccc(OCC(F)(F)F)cc2)nc1COc1ccc(CN(O)C(N)=O)cc1` [Example 7, 1-Hydroxy-1-4-5-methyl-2-(4-trifluoroethoxy-phenyl)-oxazol-4-ylmethoxy!-benzyl!-urea], for which 10 mg/kg produced 24% inhibition in vivo in experiment [1]. Moreover, in experiment [2], the inhibition at 1 µM was found to be 74%.
Take `Cc1oc(-c2ccccc2)nc1COc1ccc(C(C)N(O)C(N)=O)cc1` (stereo not shown) [Example 8, 1-Hydroxy-1-1- -4(5-methyl-2-phenyl-oxazol-4-ylmethoxy)-phenyl!-ethyl!-urea]: the inhibition at 10 µM in experiment [2] (10 μM) is 57%.
Consider `NC(=O)N(O)Cc1ccc(OCc2coc(-c3ccc(C(F)(F)F)cc3)n2)cc1` [Example 11, 1-Hydroxy-1-4-2-(4-trifluoromethyl-phenyl)-oxazol-4-ylmethoxy!-benzyl!-urea], for which the inhibition at 1 µM in experiment [2] came to 32%. The “% Inhibition of LTB4” value in experiment [3] was 68%.
For `NC(=O)N(O)Cc1ccc(OCc2csc(-c3ccc(C(F)(F)F)cc3)n2)cc1` [Example 12, 1-Hydroxy-1-4-2-(4-trifluoromethyl-phenyl)-thiazol-4-yl-methoxy!-benzyl!urea], 10 mg/kg produced 30% inhibition in vivo in experiment [1]. For the same compound, in experiment [2], the inhibition at 1 µM was determined as 56%.
For the compound `O=C(Nc1ccc(F)cc1)N(O)Cc1ccc(OCc2csc(-c3ccc(C(F)(F)F)cc3)n2)cc1` [Example 13, 3-(4-Fluoro-phenyl)-1-hydroxy-1-4-2-(4-trifluoromethyl-phenyl)-thiazol-4-ylmethoxy!-benzyl!-urea], the inhibition at 1 µM in experiment [2] turned out to be 38%.
In experiment [1], `NC(=S)N(O)Cc1ccc(OCc2csc(-c3ccc(Cl)cc3)n2)cc1` [Example 15, 1-Hydroxy-1-4-2-(4-chloro-phenyl)-thiazol-4-ylmethoxy!-benzyl!-thiourea] had an inhibition in vivo at 10 mg/kg of 21%. Besides, the inhibition at 1 µM in experiment [2] is 57%.
Regarding `CCCCCCNC(=O)N(O)Cc1ccc(OCc2csc(-c3ccc(Cl)cc3)n2)cc1` [Example 16, 1-4-2-(4-chloro-phenyl)-thiazol-4-ylmethoxy!-benzyl!-3-hexyl-1-hydroxy-urea], in experiment [2] (10 μM), the inhibition at 10 µM worked out at 36%.
For `COc1ccc(-c2nc(COc3ccc(CN(O)C(N)=O)cc3)cs2)cc1` [Example 17, 1-Hydroxy-1-4-2-(4-methoxy-phenyl)-thiazol-4-ylmethoxy!-benzyl!-urea], 10 mg/kg produced 50% inhibition in vivo in experiment [1]. Besides, in experiment [2], the inhibition at 1 µM amounted to 56%. Moreover, the “% Inhibition of LTB4” value in experiment [3] is given as 69%.
On to `Cc1oc(-c2ccccc2)nc1COc1ccc(C(O)CN(O)C(N)=O)cc1` (stereo not shown) [Example 18, 1-Hydroxy-1-2-hydroxy-2-4-(5-methyl-2-phenyl-oxazol-4-ylmethoxy)-phenyl!-ethyl!-urea], for which the inhibition at 10 µM in experiment [2] (10 μM) came out at 86%.
Turning to `Cc1oc(-c2ccc(C(F)(F)F)cc2)nc1COc1ccc(CN(O)C(=O)NN)cc1` [Example 19, 4-Hydroxy-4-4-5-methyl-2-(4-trifluoromethyl-phenyl)-oxazol-4-ylmethoxy!-benzyl!-semicarbazide], the inhibition at 10 µM in experiment [2] (10 μM) is 50%.
With `CC(C)=NNC(=O)N(O)Cc1ccc(OCc2nc(-c3ccc(C(F)(F)F)cc3)oc2C)cc1` [Example 20, 1-Isopropylidine-4-hydroxy-4-4-5-methyl-2-(4-trifluoromethylphenyl)oxazol-4-ylmethoxy!-benzyl!-semicarbazone], in experiment [2] (10 μM), the inhibition at 10 µM worked out at 78%.
For `NNC(=O)N(O)Cc1ccc(OCc2csc(-c3ccccc3)n2)cc1` [Example 21, 4-Hydroxy-4-4-(2-phenyl-thiazol-4-ylmethoxy)-benzyl!-semicarbazide], the inhibition at 10 µM in experiment [2] (10 μM) is 94%.
In the case of `NNC(=O)N(O)Cc1ccc(OCc2csc(-c3ccccc3)n2)cc1` [Example 22, 4-Hydroxy-4-4-(2-phenyl-thiazol-4-ylmethoxy)-benzyl!-semicarbazide hydrochloride], the “% Inhibition of LTB4” value in experiment [2] (10 μM, hydrochloride) is listed as 80%.
